Data: ChEMBL document CHEMBL5465560, “Selectivity Literature for EUbOPEN Chemogenomic Library” (2024)
Each block holds one compound with its values, some of them ahead of it.

Tests used:
[1] = target: T1, Aurora kinase A (Homo sapiens) (UniProt O14965); assay: Selectivity interaction (Millipore kinase profiler) EUB0000124b STK6; conditions: at 10 µM
T1 sequence (whole entry): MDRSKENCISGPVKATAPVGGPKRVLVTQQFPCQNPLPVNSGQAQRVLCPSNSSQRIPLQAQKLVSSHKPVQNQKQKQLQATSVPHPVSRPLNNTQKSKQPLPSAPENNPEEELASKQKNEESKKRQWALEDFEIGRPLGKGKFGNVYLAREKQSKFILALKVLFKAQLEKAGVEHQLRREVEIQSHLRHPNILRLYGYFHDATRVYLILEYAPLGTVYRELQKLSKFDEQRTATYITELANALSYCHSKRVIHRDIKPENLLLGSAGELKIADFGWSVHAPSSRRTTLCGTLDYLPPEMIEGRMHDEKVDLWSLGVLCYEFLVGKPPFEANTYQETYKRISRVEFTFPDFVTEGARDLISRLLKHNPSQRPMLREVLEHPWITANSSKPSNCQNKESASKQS

[2] = target: T2, Tyrosine-protein kinase receptor TYRO3 (Homo sapiens) (UniProt Q06418); assay: Selectivity interaction (KinomeScan (DiscoverX)) EUB0000618a TYRO3; conditions: at 10 µM
T2 sequence (whole entry): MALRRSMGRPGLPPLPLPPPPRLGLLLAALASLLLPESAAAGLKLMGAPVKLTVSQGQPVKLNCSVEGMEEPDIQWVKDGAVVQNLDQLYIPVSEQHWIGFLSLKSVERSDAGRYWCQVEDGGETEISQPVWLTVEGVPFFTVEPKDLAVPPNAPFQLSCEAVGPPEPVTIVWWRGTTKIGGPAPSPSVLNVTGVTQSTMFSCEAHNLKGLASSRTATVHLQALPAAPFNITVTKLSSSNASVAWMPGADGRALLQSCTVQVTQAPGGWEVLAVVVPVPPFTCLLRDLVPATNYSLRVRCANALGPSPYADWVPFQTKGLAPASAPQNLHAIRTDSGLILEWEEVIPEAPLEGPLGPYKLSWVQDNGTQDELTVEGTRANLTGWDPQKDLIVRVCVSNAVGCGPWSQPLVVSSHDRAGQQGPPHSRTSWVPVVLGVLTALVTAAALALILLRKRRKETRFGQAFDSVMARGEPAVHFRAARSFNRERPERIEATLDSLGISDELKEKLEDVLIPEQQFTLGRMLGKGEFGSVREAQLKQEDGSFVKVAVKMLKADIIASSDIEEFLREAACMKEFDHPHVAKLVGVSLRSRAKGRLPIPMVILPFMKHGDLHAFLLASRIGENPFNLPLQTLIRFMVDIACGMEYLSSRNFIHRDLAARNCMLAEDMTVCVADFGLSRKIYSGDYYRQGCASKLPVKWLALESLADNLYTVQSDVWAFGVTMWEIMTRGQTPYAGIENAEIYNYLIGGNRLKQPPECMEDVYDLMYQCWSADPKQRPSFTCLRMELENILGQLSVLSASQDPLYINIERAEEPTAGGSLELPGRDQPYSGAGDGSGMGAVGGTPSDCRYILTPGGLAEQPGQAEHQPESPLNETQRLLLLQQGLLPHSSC

[3] = target: Serine/threonine-protein kinase PAK 1 (Homo sapiens) (UniProt Q13153); assay: Selectivity interaction (KinomeScan (DiscoverX)) EUB0001619a PAK1; conditions: at 1 µM
[4] = target: Receptor tyrosine-protein kinase erbB-3 (Homo sapiens) (UniProt P21860); assay: Selectivity interaction (KinomeScan (DiscoverX)) EUB0000595a ERBB3; conditions: at 10 µM
[5] = target: T3, Dual specificity mitogen-activated protein kinase kinase 7 (Homo sapiens) (UniProt O14733); assay: Selectivity interaction (Kinase panel (KiNativ target engagement assay in Jurkat cells)) EUB0001635a MAP2K7; assay type: cell-based; conditions: Selectivity number of off-targets 0.0, Selectivity number of targets 233.0, Source Knowledge https://www.sciencedirect.com/science/article/pii/S2451945619300674?via%3Dihub, at 1 µM
T3 sequence (whole entry): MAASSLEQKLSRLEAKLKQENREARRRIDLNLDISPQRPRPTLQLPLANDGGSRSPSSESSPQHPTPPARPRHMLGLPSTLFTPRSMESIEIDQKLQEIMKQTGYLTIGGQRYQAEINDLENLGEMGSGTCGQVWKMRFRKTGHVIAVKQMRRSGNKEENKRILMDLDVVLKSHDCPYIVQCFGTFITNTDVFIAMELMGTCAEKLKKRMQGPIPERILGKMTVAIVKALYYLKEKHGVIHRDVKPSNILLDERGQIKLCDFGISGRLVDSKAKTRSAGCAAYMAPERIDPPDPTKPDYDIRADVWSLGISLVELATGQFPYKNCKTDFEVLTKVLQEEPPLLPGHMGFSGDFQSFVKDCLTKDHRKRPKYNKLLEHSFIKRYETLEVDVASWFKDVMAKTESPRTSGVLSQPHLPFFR

[6] = target: T4, Mixed lineage kinase domain-like protein (Homo sapiens) (UniProt Q8NB16); assay: Selectivity interaction (ActivX KiNativ screen (kinase selectivity in THP-1 cell lysates)) EUB0000639a MLKL; assay type: subcellular; conditions: lysate
T4 sequence (whole entry): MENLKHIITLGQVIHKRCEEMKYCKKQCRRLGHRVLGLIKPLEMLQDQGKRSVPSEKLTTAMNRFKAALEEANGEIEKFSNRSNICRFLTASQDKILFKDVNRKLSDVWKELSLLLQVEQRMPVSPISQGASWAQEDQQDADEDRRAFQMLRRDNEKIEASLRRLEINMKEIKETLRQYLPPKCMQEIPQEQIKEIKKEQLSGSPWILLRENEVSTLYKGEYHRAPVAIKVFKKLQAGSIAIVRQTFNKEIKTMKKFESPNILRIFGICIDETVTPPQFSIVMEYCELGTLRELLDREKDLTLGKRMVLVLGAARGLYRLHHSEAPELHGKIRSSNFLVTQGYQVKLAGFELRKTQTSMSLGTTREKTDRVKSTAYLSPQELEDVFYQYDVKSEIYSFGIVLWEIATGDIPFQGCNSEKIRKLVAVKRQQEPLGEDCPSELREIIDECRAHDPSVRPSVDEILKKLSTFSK

[7] = target: MAP kinase-interacting serine/threonine-protein kinase 2 (Homo sapiens, UniProt Q9HBH9); assay: Selectivity interaction (Kinase panel (Invitrogen)) EUB0000639a MKNK2; conditions: at 200 nM
[8] = target: Serine/threonine-protein kinase N1 (Homo sapiens, UniProt Q16512); assay: Selectivity interaction (ProQinase) EUB0000171b PKN1
Sequence of Serine/threonine-protein kinase N1 (Q16512 2-942 limits assumed): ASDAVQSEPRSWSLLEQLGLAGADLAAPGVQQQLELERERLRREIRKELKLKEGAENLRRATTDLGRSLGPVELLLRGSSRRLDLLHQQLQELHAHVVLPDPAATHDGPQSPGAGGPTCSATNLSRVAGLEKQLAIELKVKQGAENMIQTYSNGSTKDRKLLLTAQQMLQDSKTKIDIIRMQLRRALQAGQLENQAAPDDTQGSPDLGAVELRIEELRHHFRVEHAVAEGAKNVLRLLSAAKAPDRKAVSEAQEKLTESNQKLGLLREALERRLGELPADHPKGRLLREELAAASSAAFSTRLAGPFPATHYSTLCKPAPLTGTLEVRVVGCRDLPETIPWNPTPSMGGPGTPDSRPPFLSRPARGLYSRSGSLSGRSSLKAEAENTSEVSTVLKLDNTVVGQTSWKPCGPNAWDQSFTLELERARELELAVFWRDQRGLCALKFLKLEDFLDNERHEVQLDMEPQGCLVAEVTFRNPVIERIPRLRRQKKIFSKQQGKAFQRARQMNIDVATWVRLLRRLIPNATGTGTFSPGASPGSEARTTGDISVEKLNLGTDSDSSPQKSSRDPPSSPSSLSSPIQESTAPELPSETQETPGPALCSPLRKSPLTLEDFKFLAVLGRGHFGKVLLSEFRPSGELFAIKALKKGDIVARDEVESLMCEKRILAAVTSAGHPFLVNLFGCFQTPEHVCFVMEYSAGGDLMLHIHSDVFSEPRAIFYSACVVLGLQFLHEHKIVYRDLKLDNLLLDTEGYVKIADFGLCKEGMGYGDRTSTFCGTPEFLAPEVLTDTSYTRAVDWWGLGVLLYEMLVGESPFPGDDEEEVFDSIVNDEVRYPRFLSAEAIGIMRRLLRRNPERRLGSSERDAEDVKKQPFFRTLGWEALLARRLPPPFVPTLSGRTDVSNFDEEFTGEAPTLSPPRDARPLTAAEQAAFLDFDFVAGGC

Sequence of MAP kinase-interacting serine/threonine-protein kinase 2 (Q9HBH9 whole entry, looked up): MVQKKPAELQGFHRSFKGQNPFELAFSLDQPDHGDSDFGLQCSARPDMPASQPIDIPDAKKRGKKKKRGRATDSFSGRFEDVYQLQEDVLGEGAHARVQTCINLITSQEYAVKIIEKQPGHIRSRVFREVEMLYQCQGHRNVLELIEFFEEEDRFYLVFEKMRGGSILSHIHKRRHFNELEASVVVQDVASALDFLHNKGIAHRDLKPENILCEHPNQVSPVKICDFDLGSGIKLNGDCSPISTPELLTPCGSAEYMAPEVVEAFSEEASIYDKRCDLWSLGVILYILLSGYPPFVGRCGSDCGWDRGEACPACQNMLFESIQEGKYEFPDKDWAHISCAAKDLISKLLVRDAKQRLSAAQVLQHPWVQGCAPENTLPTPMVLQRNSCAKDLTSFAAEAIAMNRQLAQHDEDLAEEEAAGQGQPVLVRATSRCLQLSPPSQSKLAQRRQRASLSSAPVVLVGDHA
Sequence of Receptor tyrosine-protein kinase erbB-3 (Homo sapiens) (P21860 whole entry): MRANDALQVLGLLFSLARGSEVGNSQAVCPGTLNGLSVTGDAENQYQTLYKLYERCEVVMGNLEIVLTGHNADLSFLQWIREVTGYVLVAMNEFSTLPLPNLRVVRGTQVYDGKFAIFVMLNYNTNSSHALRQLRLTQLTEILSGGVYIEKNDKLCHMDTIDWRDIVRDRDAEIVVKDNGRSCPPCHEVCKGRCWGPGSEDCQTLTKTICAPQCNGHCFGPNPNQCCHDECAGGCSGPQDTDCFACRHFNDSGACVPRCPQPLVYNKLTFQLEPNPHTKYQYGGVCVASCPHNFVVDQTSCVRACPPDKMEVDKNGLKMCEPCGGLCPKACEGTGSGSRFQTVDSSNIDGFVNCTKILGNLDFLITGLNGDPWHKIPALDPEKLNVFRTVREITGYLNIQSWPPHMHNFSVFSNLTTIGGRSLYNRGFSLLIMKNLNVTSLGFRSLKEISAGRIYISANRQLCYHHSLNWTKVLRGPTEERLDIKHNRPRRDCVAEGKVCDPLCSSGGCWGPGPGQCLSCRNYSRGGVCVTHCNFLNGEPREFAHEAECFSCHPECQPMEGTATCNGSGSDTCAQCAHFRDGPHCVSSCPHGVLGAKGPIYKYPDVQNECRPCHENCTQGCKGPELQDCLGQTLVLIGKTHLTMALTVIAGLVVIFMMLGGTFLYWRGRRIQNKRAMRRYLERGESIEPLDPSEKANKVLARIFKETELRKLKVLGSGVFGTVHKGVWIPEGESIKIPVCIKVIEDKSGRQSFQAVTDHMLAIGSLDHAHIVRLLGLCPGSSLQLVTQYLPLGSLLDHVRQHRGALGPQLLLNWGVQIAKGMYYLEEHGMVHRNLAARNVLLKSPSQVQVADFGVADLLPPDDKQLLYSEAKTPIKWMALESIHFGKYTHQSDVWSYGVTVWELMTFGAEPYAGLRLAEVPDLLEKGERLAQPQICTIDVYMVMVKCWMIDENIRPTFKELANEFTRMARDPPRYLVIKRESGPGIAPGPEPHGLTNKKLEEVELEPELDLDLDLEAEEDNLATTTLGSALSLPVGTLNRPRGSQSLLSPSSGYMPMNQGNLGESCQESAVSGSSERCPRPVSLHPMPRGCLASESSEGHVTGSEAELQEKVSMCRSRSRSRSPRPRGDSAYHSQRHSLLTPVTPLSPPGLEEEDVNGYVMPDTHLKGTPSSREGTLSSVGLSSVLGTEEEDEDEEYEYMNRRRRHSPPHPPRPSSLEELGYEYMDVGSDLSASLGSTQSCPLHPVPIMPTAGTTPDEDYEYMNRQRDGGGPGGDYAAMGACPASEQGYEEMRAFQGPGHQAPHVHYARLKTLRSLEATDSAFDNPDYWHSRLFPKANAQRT
Sequence of Serine/threonine-protein kinase PAK 1 (Homo sapiens) (Q13153 whole entry): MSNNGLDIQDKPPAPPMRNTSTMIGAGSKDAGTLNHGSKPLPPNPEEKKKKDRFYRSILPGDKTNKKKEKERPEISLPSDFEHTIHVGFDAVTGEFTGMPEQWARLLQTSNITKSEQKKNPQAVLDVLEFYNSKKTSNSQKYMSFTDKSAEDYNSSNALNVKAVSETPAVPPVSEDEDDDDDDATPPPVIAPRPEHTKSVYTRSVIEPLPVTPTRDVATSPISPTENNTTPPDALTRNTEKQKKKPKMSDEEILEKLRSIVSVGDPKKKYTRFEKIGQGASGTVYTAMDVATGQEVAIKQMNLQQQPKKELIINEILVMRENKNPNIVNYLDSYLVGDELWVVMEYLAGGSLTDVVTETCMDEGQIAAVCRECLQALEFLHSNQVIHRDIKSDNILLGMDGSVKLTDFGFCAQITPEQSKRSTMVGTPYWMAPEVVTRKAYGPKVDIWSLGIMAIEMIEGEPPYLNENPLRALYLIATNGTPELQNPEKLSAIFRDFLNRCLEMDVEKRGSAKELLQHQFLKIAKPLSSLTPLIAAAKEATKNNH

% of control [1]: 124%
Structure (SMILES): CC(=O)Nc1cccc(-n2c(=O)n(C3CC3)c(=O)c3c(Nc4ccc(I)cc4F)n(C)c(=O)c(C)c32)c1

Structure (SMILES): O[C@H]1CC[C@H](Nc2ncc3nc(Nc4c(F)cc(F)cc4F)n([C@H]4CCOC4)c3n2)CC1
% of control [2]: 100%

Structure (SMILES): N#Cc1cccc(-c2c[nH]c3ncnc(N4CCOCC4)c23)c1
% of control [3]: 100%

Structure (SMILES): COCC(=O)NC/C=C/c1ccc2ncnc(Nc3ccc(Oc4ccc(C)nc4)c(C)c3)c2c1 [CP-724714]
% of control [4]: 20%

Structure (SMILES): C=CC(=O)Nc1ccc(C(=O)Nc2[nH]nc3c2CN(C(=O)N[C@H](CN(C)C)c2ccccc2)C3(C)C)cc1
% of engagement [5]: 22.4%

% of inhibition ([6]; at 0.01 µM): -3.7%
% of inhibition ([6]; at 0.04 µM): 7.2%
% of inhibition ([6]; at 0.2 µM): 16.3%
% of inhibition ([6]; at 1 µM): 42.3%
% of inhibition ([6]; at 5 µM): 76.6%
% of inhibition [7]: 86%
Structure (SMILES): CC[C@@H]1[C@H](F)C(=O)N[C@@H]1COc1nccc2cc(C(N)=O)c(OC)cc12 [ZIMLOVISERTIB]

% of control ([8]; at 1 µM): 100%
% of control ([8]; at 5 µM): 91%
Structure (SMILES): C=CC(=O)Nc1cccc(C(=O)Nc2ccc(Nc3cc(-c4[nH]c(SC)nc4C)ccn3)cc2)c1
